In US20090137580A1, “Fused Heterocyclic Derivatives and Use Thereof” (Takeda Pharmaceutical Company Limited, priority 2005, published 2009):

What was measured:
[1] = target: T1, PDGFR Alpha Receptor Kinase (PDGFRalpha) (Homo sapiens, UniProt P16234); experiment: Determination of PDGFR alpha receptor kinase (PDGFRalpha) inhibitory activity (alpha screen); type: biochemical; conditions: PDGFRalpha intracellular domain protein, 25 μM ATP buffer; read-out: IC50 value (PDGFRalpha kinase inhibition)
T1 construct: PDGFRalpha intracellular domain protein (UPSTATE); purchased UPSTATE
T1 sequence (P16234 550-1089 limits assumed): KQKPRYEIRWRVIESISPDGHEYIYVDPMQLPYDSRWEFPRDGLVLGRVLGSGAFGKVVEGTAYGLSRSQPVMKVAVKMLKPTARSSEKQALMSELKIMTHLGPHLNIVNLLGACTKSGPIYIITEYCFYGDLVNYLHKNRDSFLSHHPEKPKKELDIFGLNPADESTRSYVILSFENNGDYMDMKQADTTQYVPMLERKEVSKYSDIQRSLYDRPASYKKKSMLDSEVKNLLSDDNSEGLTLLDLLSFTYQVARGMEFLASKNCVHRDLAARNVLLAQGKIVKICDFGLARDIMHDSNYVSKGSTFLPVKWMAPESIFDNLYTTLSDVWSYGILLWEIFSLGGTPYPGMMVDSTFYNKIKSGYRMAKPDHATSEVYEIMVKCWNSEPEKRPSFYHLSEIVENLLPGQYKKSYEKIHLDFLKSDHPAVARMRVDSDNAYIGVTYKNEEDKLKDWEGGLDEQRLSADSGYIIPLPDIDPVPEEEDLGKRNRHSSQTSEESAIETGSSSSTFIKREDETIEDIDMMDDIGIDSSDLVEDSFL
Experimental: The test compound dissolved in dimethyl sulfoxide (DMSO) was diluted with a buffer (50 mM Tris-HCl, pH 7.5, 5 mM MgCl2, 5 mM MnCl2, 2 mM dithiothreitol, 0.01% Tween-20).
Acceptor beads: PerkinElmer for alpha screen assay) was added to quench the reaction. The reaction solution was stood at 25° C. for 16 hr, and the count was measured using a plate reader·Fusion™ (manufactured by PerkinElmer). The kinase inhibitory rate (%) of the test compound was calculated by the following formula.
(§1) Inhibitory rate(%)=(1−(count of test compound−blank)÷(control−blank))×100
(§2) wherein the count of the solution reacted without addition of the compound is “control” and the count of the solution without addition of the compound and ATP is “blank”.

[2] = system: Human umbilical vein endothelial cells (HUVEC); experiment: Vascular endothelial cell growth inhibitory test; type: cell-based; conditions: Homo sapiens, 120 h, VEGF 120 ng/mL, culture 5 days, XTT reagent
Experimental: Human umbilical vein endothelial cells (HUVEC, purchased from KURABO) were cultured in a gas incubator (37° C., CO2 5%) in a vascular endothelial cell medium (Invitrogen) containing 5% fetal calf serum and a basic fibroblast growth factor (2.5 ng/mL). To be specific, HUVEC suspended in the aforementioned vascular endothelial cell medium (Invitrogen) containing 5% fetal calf serum were seeded into a 96 well flat-bottom plate (50 μL, 3000 cells each well). After culturing overnight, various concentrations of test substance and the final concentration (120 ng/mL) of vascular endothelial growth factor (VEGF) were dissolved in a vascular endothelial cell medium (Invitrogen) containing 5% fetal calf serum and added to each well (50 μL). After culturing for 5 days, an XTT reagent (Wako Pure Chemical Industries, Ltd.) was added to each well (10 μL), and reacted in a gas incubator (37° C., CO2 5%) for 2-3 hr. The absorbance at 450 nm was measured by a microtiter plate reader, and the cell growth inhibitory activity was determined.

[3] = target: T2, PDGFRbeta Receptor Kinase (PDGFRbeta) (Homo sapiens, UniProt P09619); experiment: Determination of PDGFRbeta receptor kinase (PDGFRbeta) inhibitory activity (alpha screen); type: biochemical; conditions: PDGFRbeta intracellular domain protein, 25 μM ATP buffer; read-out: IC50 value (PDGFRbeta kinase inhibition)
T2 construct: PDGFRbeta intracellular domain protein (UPSTATE); purchased UPSTATE
T2 sequence (P09619 554-1106 limits assumed): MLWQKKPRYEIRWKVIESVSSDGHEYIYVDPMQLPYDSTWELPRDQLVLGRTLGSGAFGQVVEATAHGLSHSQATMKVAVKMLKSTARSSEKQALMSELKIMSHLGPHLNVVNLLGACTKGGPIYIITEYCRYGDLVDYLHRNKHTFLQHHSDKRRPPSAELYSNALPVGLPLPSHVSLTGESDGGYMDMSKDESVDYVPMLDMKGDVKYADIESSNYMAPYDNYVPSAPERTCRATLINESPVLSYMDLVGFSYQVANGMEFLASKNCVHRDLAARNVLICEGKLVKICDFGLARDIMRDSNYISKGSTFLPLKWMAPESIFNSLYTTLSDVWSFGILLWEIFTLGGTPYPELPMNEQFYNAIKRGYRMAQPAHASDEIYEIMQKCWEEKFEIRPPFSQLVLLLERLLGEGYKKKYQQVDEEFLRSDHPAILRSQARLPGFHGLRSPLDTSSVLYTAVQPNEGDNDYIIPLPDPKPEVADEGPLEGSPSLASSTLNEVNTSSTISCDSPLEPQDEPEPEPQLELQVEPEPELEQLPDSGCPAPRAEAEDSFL
Experimental: (§3) The test compound dissolved in dimethyl sulfoxide (DMSO) was diluted with a buffer (50 mM Tris-HCl, pH 7.5, 5 mM MgCl2, 5 mM MnCl2, 2 mM dithiothreitol, 0.01% Tween-20). A buffer (10 μl) containing 125 ng/ml PDGFRbeta intracellular domain protein (UPSTATE) and 250 ng/ml biotin-labeled polypeptide biotinyl-poly-Glu:Tyr (4:1) (CIS Bio International) was added to the compound solution (5 μl). At 5 min after mixing a kinase enzyme, the compound and a biotin-labeled polypeptide, a buffer (10 μl) containing 25 μM ATP was added to the obtained mixture, the mixture was allowed to react at 25° C. for 30 min. Then, 25 μl of a stop solution (100 mM EDTA·2 sodium salt, 62.5 mM HEPES buffer (pH 7.4), 250 mM NaCl, 0.1% bovine serum albumin, 10 μg/ml Streptavidin Donor beads: PerkinElmer for alpha screen assay, 10 μg/ml Anti-phosphotyrosine (P-Tyr-66) Acceptor beads: PerkinElmer for alpha screen assay) was added to quench the reaction. The reaction solution was stood at 25° C. for 16 hr, and the count was measured using a plate reader·Fusion™ (manufactured by PerkinElmer). The kinase inhibitory rate (%) of the test compound was calculated by the following formula.
as §1, §2

[4] = target: T3, VEGF Receptor 2 Kinase (VEGFR2) (Homo sapiens, UniProt P35968); experiment: Determination of VEGF receptor 2 kinase (VEGFR2) inhibitory activity (alpha screen); type: biochemical; conditions: VEGFR2 intracellular domain protein, 25 μM ATP buffer, read-out: inhibitory rate (kinase inhibitory rate of VEGFR2)
T3 construct: made in house; host or cells: SF-21 insect cells, recombinant baculovirus BAC-VEGFR2 (pFASTBAC1)
T3 sequence (P35968 786-1356 limits assumed): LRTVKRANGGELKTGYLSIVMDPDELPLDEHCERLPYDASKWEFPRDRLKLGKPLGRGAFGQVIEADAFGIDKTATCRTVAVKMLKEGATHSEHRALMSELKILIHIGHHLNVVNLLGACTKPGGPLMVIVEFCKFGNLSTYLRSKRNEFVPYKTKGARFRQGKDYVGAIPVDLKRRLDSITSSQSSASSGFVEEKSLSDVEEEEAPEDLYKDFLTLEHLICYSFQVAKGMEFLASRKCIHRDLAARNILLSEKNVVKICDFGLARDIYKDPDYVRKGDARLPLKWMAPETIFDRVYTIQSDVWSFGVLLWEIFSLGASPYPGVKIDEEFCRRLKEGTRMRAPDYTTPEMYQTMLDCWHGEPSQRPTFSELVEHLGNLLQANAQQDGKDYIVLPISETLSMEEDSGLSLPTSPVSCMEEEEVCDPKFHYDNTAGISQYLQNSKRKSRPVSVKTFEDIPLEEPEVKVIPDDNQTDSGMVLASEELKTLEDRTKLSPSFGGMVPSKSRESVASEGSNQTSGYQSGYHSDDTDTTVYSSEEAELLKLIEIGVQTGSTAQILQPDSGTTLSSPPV
Experimental: For cloning of human VEGF receptor 2 (hereinafter to be abbreviated as VEGFR2) gene, PCR was performed using cDNA Libraries Human Placenta (Clontech) as a template. The primer used for PCR was prepared by, based on the information of the base sequence (Genbank Accession AF035121) of VEGFR2 gene, adding a base sequence encoding the flag peptide and a restriction enzyme recognition sequence to the base sequence (2671-4374 of Genbank Accession AF035121) encoding the VEGFR2 intracellular domain, so that a flag tag would be added to the N terminal of the protein. The primer base sequence is shown in the following.
PCR reaction was carried out using a KOD-plus kit (TOYOBO). The obtained PCR product was electrophoresed on an agarose gel (1%), and a DNA fragment amplified by PCR was recovered from the gel and digested with restriction enzymes Sal I and Sph I. The DNA after the restriction enzyme treatment was electrophoresed on an agarose gel (1%), and the obtained DNA fragment was recovered and ligated to the plasmid pFASTBAC1 (Invitrogen) digested with restriction enzymes Sal I and Sph I to give an expression plasmid pFB-VEGFR2. The base sequence of the inserted fragment was confirmed to have matched with the base sequence (2671-4374 of Genbank Accession AF035121) of the VEGFR2 intracellular domain. Furthermore, virus stock BAC-VEGFR2 of the recombinant Baculovirus was prepared using BAC-TO-BAC Baculovirus Expression System (Invitrogen).
SF-21 cells were inoculated into 1 L of Sf-900IISFM medium (Invitrogen) containing 10% fetal calf serum (trace), 50 mg/L Gentamicin (Invitrogen) and 0.1% Pluronic F-68 (Invitrogen) at 1×10^6 cells/ml, and shake culture was performed using a 2 L Erlenmeyer flask at 27° C., 100 rpm. After 24 hr of culture, recombinant Baculovirus BAC-VEGFR2 (13.4 mL) was added, and the culture was continued for 3 days. The culture medium was centrifuged at 2,000 rpm for 5 min to give virus-infected cells. The infected cells were washed with phosphate buffered saline (Invitrogen), centrifuged under the same conditions, and preserved at −80° C. The cryopreserved cells were thawed in ice, suspended in 30 mL of buffer A (Tris buffer, pH 7.4, containing 20% glycerol and 0.15M NaCl (50 mM)) supplemented with Complete Protease Inhibitor (Boehringer), and disrupted three times using a polytron homogenizer (Kinematica) at 20,000 rpm, 30 sec. The disrupt was clarified by centrifugation at 40,000 rpm, 30 min and filtered through a 0.45 μm filter. The filtrate was passed through a column packed with Anti-FLAG M2 Affinity Gel (Sigma Ltd., 4 mL) at a flow rate of about 0.5 mL/min. The column was washed with buffer A and eluted with buffer A containing 100 μg/mL FLAG peptide. The eluate was concentrated by Vivaspin 20 (Viva Science) having a fraction molecular weight of 30K. The concentrate was applied to NAP™ 25 column (Amersham Biosciences) equilibrated with buffer A for buffer exchange. The fractions containing the VEGFR2 intracellular domain protein were collected, glycerol was added to the final concentration of 50% and the fractions cryopreserved at ˜80° C.
The test compound dissolved in dimethyl sulfoxide (DMSO) was diluted with a buffer (50 mM Tris-HCl, pH 7.5, 5 mM MgCl2, 5 mM MnCl2, 2 mM dithiothreitol, 0.01% Tween-20). A buffer (10 μl) containing 50 ng/ml VEGFR2 intracellular domain protein and 250 ng/ml biotin-labeled polypeptide biotinyl-poly-Glu:Tyr (4:1) (CIS Bio International) was added to the compound solution (5 μl). A buffer (10 μl) containing 25 μM ATP was added to the obtained mixture, the mixture was allowed to react at 25° C. for 5 min. Then, 25 μl of a stop solution (100 mM EDTA·2 sodium salt, 62.5 mM HEPES buffer (pH 7.4), 250 mM NaCl, 0.1% bovine serum albumin, 10 μg/ml Streptavidin Donor beads: PerkinElmer for alpha screen assay, 10 μg/ml Anti-phosphotyrosine (P-Tyr-100) Acceptor beads: PerkinElmer for alpha screen assay) was added to quench the reaction. […]

[5] = target: T4, TIE2 Receptor Kinase (TIE2) (Homo sapiens, UniProt Q02763); experiment: Determination of TIE2 receptor kinase (TIE2) inhibitory activity (alpha screen); type: biochemical; conditions: TIE2 intracellular domain protein, 5 μM ATP buffer; read-out: IC50 value (TIE2 kinase inhibition)
T4 construct: TIE2 intracellular domain protein (UPSTATE); purchased UPSTATE
T4 sequence (Q02763 770-1124 limits assumed): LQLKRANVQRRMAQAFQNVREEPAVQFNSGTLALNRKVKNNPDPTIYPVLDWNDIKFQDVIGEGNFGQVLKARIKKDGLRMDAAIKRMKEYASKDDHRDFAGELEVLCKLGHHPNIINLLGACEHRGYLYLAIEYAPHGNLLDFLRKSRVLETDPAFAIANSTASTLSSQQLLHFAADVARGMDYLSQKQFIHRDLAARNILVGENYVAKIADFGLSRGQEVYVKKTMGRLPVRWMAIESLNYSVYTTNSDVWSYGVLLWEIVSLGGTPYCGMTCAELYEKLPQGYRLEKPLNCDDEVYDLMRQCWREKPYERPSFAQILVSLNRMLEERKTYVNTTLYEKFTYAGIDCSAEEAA
Experimental: as §3, with “containing 50” for “containing 125”, “ng/ml TIE2” for “ng/ml PDGFRbeta”, “containing 5” for “containing 25”, “for 10” for “for 30”
as §1, §2
Prism (Graphpad Software) according to the nonlinear-regression sigmoidal dose-response (variable slope) analysis method.

| IC50 [1] | IC50 [3] | inhibition at 1 µM [4] | IC50 [5] | Compound | IC50 [2] |
| --- | --- | --- | --- | --- | --- |
| ≤ 500 nM | ≤ 500 nM | ≥ 90% |  | Cn1ccc2ncnc(Oc3ccc(NC(=O)Nc4cccc(Cl)c4)cc3)c21 [Example 4, N-(3-chlorophenyl)-N′-{4-[(5-methyl-5H-pyrrolo[3,2-d]pyrimidin-4-yl)oxy]phenyl}urea] | 91 nM |
| ≤ 500 nM | ≤ 500 nM | ≥ 90% |  | Cc1cccc(NC(=O)Nc2ccc(Oc3ncnc4ccn(C)c34)cc2)c1 [Example 18, N-(3-methylphenyl)-N′-{4-[(5-methyl-5H-pyrrolo[3,2-d]pyrimidin-4-yl)oxy]phenyl}urea] | 53 nM |
| ≤ 500 nM | ≤ 500 nM | ≥ 90% | ≤ 5 nM | COc1cc(Oc2ncnc3ccn(C)c23)ccc1NC(=O)Nc1cccc(C(F)(F)F)c1 [Example 77, N-{2-methoxy-4-[(5-methyl-5H-pyrrolo[3,2-d]pyrimidin-4-yl)oxy]phenyl}-N′-[3-(trifluoromethyl)phenyl]urea] |  |
